Patent US20250108139A1, “PEPTIDE UREA DERIVATIVE, PHARMACEUTICAL COMPOSITION CONTAINING PEPTIDE UREA DERIVATIVE, AND APPLICATION OF PEPTIDE UREA DERIVATIVE” (BIVISION PHARMACEUTICALS, INC, priority 2022, published 2025)

Legend:
PSMA protein = PSMA protein (Homo sapiens (Human), UniProt Q04609); experiment: Affinity of DB compounds to PSMA protein using Biacore (Effect Example 3); conditions: Biacore 8K, 15° C., 1:1 binding model; pKD=−Log KD
Protocol: The affinity of DB compounds to PSMA protein was tested using the Biacore 8K (Cytiva) instrument to detect ligand binding to PSMA protein (Sino Biological). PSMA protein was captured on an SA chip. Before fixing the ligand (flow paths 1 and 2, flow rate of 10 μL/min), PSMA protein (10 μg/mL, flow rate of 5 μL/min, injection time of 600 s) was fixed on flow path 2 using a flow buffer. The sensor surface was adjusted by continuously injecting 1 M NaCl three times in 50 mM NaOH. After each ligand injection, additional cleaning was performed using isopropanol in 1 M NaCl and 50 mM NaOH (flow paths 1 and 2, flow rate of 10 μL/min, injection time of 60 s).
All compounds were dissolved in 100% DMSO and diluted to 10 mM, then further diluted to the appropriate highest concentration in the analysis buffer (PBS, PH 7.4, 1 mM TCEP ([…]), 0.05% P20, 2% DMSO). The analysis was conducted under the following conditions: 15° C. analysis temperature; analysis steps=all set to LMW kinetics; cycle type=single cycle (90 s contact time, 1800 s dissociation time, 30 μL/min flow rate, flow paths 1 and 2); detection in flow=path 2-1. Data evaluation was performed using Biacore Insight Evaluation Software, fitting the data to a 1:1 binding model.
Biacore results are shown in Table 5: pKD=−Log KD, wherein KD is the binding affinity of the compound to PSMA protein measured by Biacore. It is expressed by Kd (M)=Kd (1/s)/Ka (1/Ms). A indicates pKD>8; B indicates 7<pKD<8; C indicates 6<pKD<7; D indicates pKD<6.

[1] = tested on: PSMA-positive 22rv1 tumor-bearing mouse; experiment: 177Lu labeling and animal biodistribution experiment, gamma counter; format: in vivo; conditions: 177Lu-labeled compound, 24 h after tail vein injection, n = 2
Protocol: Distribution in PSMA-positive tumor-bearing mouse tissues: Tumor-bearing animals (purchased from Shanghai Alamo Pharmaceutical Technology Co., Ltd.) were subcutaneously inoculated with 3×10^6 22rv1 cells (in 50% Matrigel, Corning) into the right shoulder region of 6-9 week old (Balb/c Nude) mouse. Once the tumors had grown to an appropriate size, ^177Lu-radiolabeled DB compounds were injected into the mouse via the tail vein (approximately 1.85 MBq-3.7 MBq/mouse, specific activity: 22423.82 Kbq/μg). After administration, the animals were euthanized using carbon dioxide inhalation at 24 hours. The blood and organs (blood, liver, kidney, muscle, tumor) were collected.
Blood was collected through the abdominal aorta and 100 μL was immediately quantified into designated centrifuge tubes (weighed). After collection, the organs were washed twice with deionized water, dried, placed in pre-weighed tubes, and weighed again to calculate the sample weight. Samples were measured on the day of collection. All blood and tissue samples were measured for radioactivity using a gamma counter. The results are shown in FIGS. 3, 4, 5, 6, 7, and Table 6.

[2] = molecular target: PSMA-expressing cells (22Rv1) (Homo sapiens (Human), UniProt Q04609); experiment: Competitive binding against radiolabeled PSMA-617 ligand on 22Rv1 cells; conditions: unlabeled compound vs radiolabeled PSMA-617 ligand, on ice 2 hours
PSMA-expressing cells (22Rv1), sequence (Q04609 whole entry): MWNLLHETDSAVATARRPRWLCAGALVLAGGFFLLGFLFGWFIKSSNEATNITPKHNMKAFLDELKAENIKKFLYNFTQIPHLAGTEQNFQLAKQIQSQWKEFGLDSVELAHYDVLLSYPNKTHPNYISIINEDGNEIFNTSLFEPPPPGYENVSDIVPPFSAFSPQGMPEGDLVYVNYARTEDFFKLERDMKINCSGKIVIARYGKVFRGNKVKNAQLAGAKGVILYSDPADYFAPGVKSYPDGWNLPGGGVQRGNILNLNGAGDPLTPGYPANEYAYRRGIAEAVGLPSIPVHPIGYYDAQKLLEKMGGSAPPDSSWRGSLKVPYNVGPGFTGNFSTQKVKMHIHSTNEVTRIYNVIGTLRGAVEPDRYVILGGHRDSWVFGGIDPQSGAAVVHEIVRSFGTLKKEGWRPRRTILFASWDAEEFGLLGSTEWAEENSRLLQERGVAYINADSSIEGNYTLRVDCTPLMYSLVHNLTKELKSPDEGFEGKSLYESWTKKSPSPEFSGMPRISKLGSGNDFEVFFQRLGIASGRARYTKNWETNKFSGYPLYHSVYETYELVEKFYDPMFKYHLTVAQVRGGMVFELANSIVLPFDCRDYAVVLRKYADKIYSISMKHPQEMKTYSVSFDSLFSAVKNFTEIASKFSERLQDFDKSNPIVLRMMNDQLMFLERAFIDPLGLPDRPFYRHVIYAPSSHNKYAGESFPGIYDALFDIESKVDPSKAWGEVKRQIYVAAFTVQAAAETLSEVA
Protocol: (1) 22Rv1 cells in the logarithmic growth phase were prepared into a cell suspension, and the cell density was adjusted to 1×10^4 cells/mL. 1 mL of the cell suspension was seeded into each well of a 24-well cell culture plate. The cells were cultured overnight in a 37° C. incubator.
(2) The cell culture medium was aspirated, and the cells were washed once with PBS. Then, 975 μL of additive-free medium was added.
(3) To each well, 25 μL of a fixed concentration of radiolabeled PSMA-617 ligand (final concentration in the medium: 2 μCi/mL) and different concentrations (final concentrations in the medium: 1000 ng/ml, 100 ng/mL, 10 ng/mL, 1 ng/mL, 0.1 ng/mL, 0.01 ng/mL, 0.001 ng/mL, 0 ng/ml) of the unlabeled test blocking compounds DB-18, DB-19, DB-13, E-3 were added.
(4) The cells were incubated on ice for 2 hours.
(5) The cells were washed three times with ice-cold PBS.
(6) The cells were lysed with 0.5 mL of 1 M sodium hydroxide, and washed twice with 0.5 mL PBS. The sodium hydroxide (0.5 mL) and PBS (0.5 mL×2) solutions were collected for uptake counting.

LNCaP cells = experiment: Cell killing, CCK8 assay; format: cell-based; conditions: 177Lu-labeled, 45 μCi/mL, CCK8 on fifth day
Protocol: A. LNCaP cells in the logarithmic growth phase were prepared into a cell suspension, and the cell density was adjusted to 1×10^5 cells/mL. 1 mL of the cell suspension was seeded into each well of a 24-well cell culture plate. The cells were cultured for 24 hours in a 37° C. incubator.
B. The ^177Lu-labeled compound (^177Lu-E-3) was prepared in serum-containing culture medium at radioactive concentrations of 5, 15, and 45 μCi/mL (the unlabeled E-3 was prepared at a corresponding precursor concentration for 45 μCi/mL).
C. The experimental groups were treated with 1 mL/well of the above ^177Lu-labeled compound solutions, while the control group was treated with 1 mL/well of serum-containing culture medium.
D. The cells were cultured in the incubator for 24 hours, after which the medium was entirely replaced with fresh culture medium.
E. On the fifth day, cell proliferation in each group was monitored using an enhanced CCK8 assay kit.

[3] = Determination of Log P (n-octanol/water partition); format: physicochemical; conditions: 177Lu-labeled compound, mean of three tubes
Protocol: Three EP tubes were prepared, each containing 0.1 mL of saturated n-octanol and 80 μL of ultrapure water. Then, 20 μL (approximately 1 MBq) of the ^177Lu-labeled DB-13, DB-18, and DB-19 compound solutions were added to the respective tubes. After shaking evenly, the tubes were centrifuged at room temperature (2000 r/min, 5 minutes, centrifugation radius of 10 cm). From each tube, 100 μL was taken from both the lipid layer and the aqueous layer, and the radioactivity counts per minute for both phases were measured. The Log P values were calculated, and their mean values were taken as the final result.

albumin in rat plasma = experiment: Plasma protein binding (PPB) test by ultrafiltration; format: in vitro ADME; conditions: 177Lu-labeled compound
Protocol: The labeled compounds ^177Lu-E-3, 177Lu-DB-13, 177Lu-DB-18, and ^177Lu-DB-19 (1 μCi) were prepared in a reaction solution by adding 50 μL of PBS to achieve a concentration of 20 μCi/mL. 50 μL of the 20 μCi/mL reaction solution was added to 200 μL of plasma, repeated for 3 tubes. The mixture was mixed well and incubated at room temperature for 10 minutes, then added to ultrafiltration tubes and centrifuged at 13000 rpm for 45 minutes. Following this, 50 μL of normal saline was added and the samples were centrifuged again for 15 minutes. The upper chamber and the filtrate were respectively counted for radioactivity.
PPB=[(upper chamber counts−background counts]/(filtrate counts+upper chamber counts−2*background counts)]*100%.

PSMA protein, sequence (Q04609 whole entry): as above

**Q.** Which Kd (PSMA protein) does the source give for O=C(O)CC[C@H](NC(=O)NC(CCCCNC(=O)[C@H](Cc1ccc2ccccc2c1)NC(=O)[C@H]1CC[C@H](NC(=O)CCC(=O)NCC(=O)N2CN(C(=O)CNC(=O)CCC(=O)N[C@H]3CC[C@H](C(=O)N[C@@H](Cc4ccc5ccccc5c4)C(=O)NCCCC[C@H](NC(=O)N[C@@H](CCC(=O)O)C(=O)O)C(=O)O)CC3)CN(C(=O)CNC(=O)CN3CCN(CC(=O)O)CCN(CC(=O)O)CCN(CC(=O)O)CC3)C2)CC1)C(=O)O)C(=O)O (stereo partly shown) [DB-13] here?
**A.** The Kd was under 10 nM.

**Q.** What about the Blood uptake [1] of the same compound?
**A.** The Blood uptake was 0.025 % ID/g.

**Q.** And the Kidney uptake [1]?
**A.** Its Kidney uptake is 2.890 % ID/g.

**Q.** And the Liver uptake [1]?
**A.** The Liver uptake was 0.115 % ID/g.

**Q.** What about the Muscle uptake [1] of the same compound?
**A.** Its Muscle uptake is 0.060 % ID/g.

**Q.** And the Tumor uptake [1]?
**A.** The Tumor uptake was 16.195 % ID/g.

**Q.** And the IC50 [2]?
**A.** The IC50 was 1.83 nM.

**Q.** And the cell-killing rate (LNCaP cells)?
**A.** Its cell-killing rate is 67%.

**Q.** What about the logP [3] of the same compound?
**A.** Its logP is -1.96.

**Q.** What about the “plasma protein binding ratio (albumin binding ratio)” value (albumin in rat plasma) of the same compound?
**A.** The value was 90.84%.
